Laboratory results from US4120955A, “Method for production of kanamycin C and its derivatives” (Zaidan Hojin Biseibutsu Kagaku Kenkyu Kai, priority 1976, dated 1978).
Converted amounts (≈) assume the structure as drawn. “Also recorded” adds a separate entry of the source. Read-outs that look alike come from different tables or passages of the source.

Legend:
[1] = system: aminoglycoside 6'-acetyltransferases; assay: Inactivation by aminoglycoside 6'-acetyltransferases; type: biochemical
99 = assay: Minimum inhibitory concentration, serial dilution method; type: cell-based; details: 18 h, read-out: Minimum Inhibitory Concentration
Experimental: (§1) The minimum inhibitory concentrations (mcg/ml) of kanamycin C, 3'-deoxykanamycin C and 3',4'-dideoxykanamycin C against various microorganisms were determened according to serial dilution method using nutrient agar medium at 37° C., the estimation being effected after 18 hours incubation.

[2] = system: Klebsiella pneumoniae 22 No. 3038; assay: as above; type: cell-based
Experimental: as §1

[3] = system: Staphylococcus aureus FDA 209P; assay: as above; type: cell-based; details: FDA209P, read-out: Minimum Inhibitory Concentration
Experimental: as §1

[4] = system: Escherichia coli LA 290 R56; assay: as above; type: cell-based; details: LA290R56, 18 h, read-out: Minimum Inhibitory Concentration
Experimental: as §1

[5] = system: Escherichia coli JR 66/W677; assay: as above; type: cell-based
Experimental: as §1

[6] = system: Pseudomonas aeruginosa A3; assay: as above; type: cell-based; details: nutrient agar, 37° C., 18 hours, P. aeruginosa A3
Experimental: as §1

Escherichia coli K-12 = assay: as above; type: cell-based
Experimental: as §1

[7] = system: Pseudomonas aeruginosa GN 315; assay: as above; type: cell-based; details: GN315, 18 h, read-out: Minimum Inhibitory Concentration
Experimental: as §1

[8] = system: Escherichia coli LA 290 R64; assay: as above; type: cell-based; details: LA290R64, 18 h, read-out: Minimum Inhibitory Concentration
Experimental: as §1

[9] = system: Pseudomonas aeruginosa H 11; assay: as above; type: cell-based; details: H11, 18 h, read-out: Minimum Inhibitory Concentration
Experimental: as §1

[10] = system: Escherichia coli K-12 ML 1629; assay: as above; type: cell-based; details: K12ML1629, 18 h, read-out: Minimum Inhibitory Concentration
Experimental: as §1

[11] = system: Mycobacterium smegmatis ATCC 607; assay: as above; type: cell-based; details: Mycolicibacterium smegmatis, read-out: Minimum Inhibitory Concentration
Experimental: as §1

[12] = system: Escherichia coli LA 290 R55; assay: as above; type: cell-based; details: LA290R55, 18 h, read-out: Minimum Inhibitory Concentration
Experimental: as §1

[13] = system: Klebsiella pneumoniae PCI 602; assay: as above; type: cell-based
Experimental: as §1

[14] = system: Escherichia coli K-12 ML 1410; assay: as above; type: cell-based; details: K12ML1410, nutrient agar, 37° C., 18 hours, E. coli K-12 ML 1410
Experimental: as §1

[15] = system: Escherichia coli K-12 ML 1630; assay: as above; type: cell-based; details: K12ML1630, nutrient agar, 37° C., 18 hours, E. coli K-12 ML 1630
Experimental: as §1

Escherichia coli W 677 = assay: as above; type: cell-based
Experimental: as §1

Escherichia coli NIHJ = assay: as above; type: cell-based; details: 18 h, read-out: Minimum Inhibitory Concentration
Experimental: as §1

Escherichia coli K-12 R5 = assay: as above; type: cell-based; details: K12R5, 18 h, read-out: Minimum Inhibitory Concentration
Experimental: as §1

[16] = system: Pseudomonas aeruginosa TI-13; assay: as above; type: cell-based; details: TI13, 18 h, read-out: Minimum Inhibitory Concentration
Experimental: as §1

[17] = system: Pseudomonas aeruginosa No. 12; assay: as above; type: cell-based; details: NO.12, 18 h, read-out: Minimum Inhibitory Concentration
Experimental: as §1

[18] = system: Escherichia coli K-12 ML 1410 R81; assay: as above; type: cell-based; details: 18 h, read-out: Minimum Inhibitory Concentration
Experimental: as §1

in vivo = details: mouse, iv
[19] = system: resistant strains which produce 6'-acetyltransferases, for example Pseudomonas aeruginosa GN315; details: known deoxykanamycin B derivatives; cited from earlier work
[20] = system: aminoglycoside 6'-acetyltransferases; details: known kanamycins; cited from earlier work
[21] = system: resistant bacteria which produce 3'-phosphotransferases; details: known deoxykanamycin B derivatives; cited from earlier work

Compound | MIC 99 [µg/mL] | MIC [4] [µg/mL] | MIC [6] [µg/mL] | MIC [7] [µg/mL] | MIC [8] [µg/mL] | MIC [10] [µg/mL] | MIC [12] [µg/mL] | MIC [14] [µg/mL] | MIC [15] [µg/mL] | MIC (Escherichia coli NIHJ) [µg/mL] | MIC [16] [µg/mL] | MIC [17] [µg/mL] | MIC [18] [µg/mL] | inactivation (acetylation of the 6'-amino group) by 6'-acetyltransferases [20] | other results
NC1CC(N)C(OC2OC(CO)C(O)C(N)C2O)C(O)C1OC1OC(CO)C(O)C(O)C1N (stereo not shown) [Kanamycin C, kanamycin C] | > 100 | 25 (≈ 51.6 µM) | > 100 | > 100 | 25 (≈ 51.6 µM) | > 100 | > 100 | 6.25 (≈ 12.9 µM) | > 100 | 3.13 (≈ 6.46 µM) | > 100 | 100 (≈ 206 µM) | > 100 | – | inactivation by 6'-acetyltransferases [1]: inherently cannot be inactivated; MIC ([2]; 22NO.3038, 18 h, read-out: Minimum Inhibitory Concentration): > 100 µg/mL; MIC ([3]; 18 h): 1.56 µg/mL (≈ 3.22 µM); MIC ([5]; JR66/W677, 18 h, read-out: Minimum Inhibitory Concentration): > 100 µg/mL; MIC (Escherichia coli K-12; K12, 18 h, read-out: Minimum Inhibitory Concentration): 3.13 µg/mL (≈ 6.46 µM); MIC [9]: > 100 µg/mL; MIC ([11]; ATCC607, 18 h): 12.5 µg/mL (≈ 25.8 µM); MIC ([13]; PCI602, 18 h, read-out: Minimum Inhibitory Concentration): 3.13 µg/mL (≈ 6.46 µM); MIC (Escherichia coli W 677; W677, 18 h, read-out: Minimum Inhibitory Concentration): 3.13 µg/mL (≈ 6.46 µM); MIC (Escherichia coli K-12 R5): 3.13 µg/mL (≈ 6.46 µM)
NCC1OC(OC2C(N)CC(N)C(OC3OC(CO)C(O)C(N)C3O)C2O)C(N)CC1O (stereo not shown) [DKMB, 3'-deoxykanamycin B, reference compound] | 1.56 (≈ 3.34 µM) | 3.13 (≈ 6.69 µM) | 1.56 (≈ 3.34 µM) | 100 (≈ 214 µM) | 3.13 (≈ 6.69 µM) | 1.56 (≈ 3.34 µM) | 25 (≈ 53.5 µM) | 1.56 (≈ 3.34 µM) | 1.56 (≈ 3.34 µM) | 0.78 (≈ 1.67 µM) | 0.78 (≈ 1.67 µM) | 0.78 (≈ 1.67 µM) | 1.56 (≈ 3.34 µM) | can be inactivated; also recorded: acetylate the 6'-amino group | LD50 (in vivo): 159 mg/kg; MIC ([2]; nutrient agar, 37° C., 18 hours, K. pneumoniae 22 No. 3038, read-out: Minimum Inhibitory Concentration): 50 µg/mL (≈ 107 µM); MIC ([3]; nutrient agar, 37° C., 18 hours, S. aureus FDA 209P): < 0.2 µg/mL; MIC ([5]; JR66/W677, nutrient agar, 37° C., 18 hours, E. coli JR 66/W677, read-out: Minimum Inhibitory Concentration): 50 µg/mL (≈ 107 µM); MIC (Escherichia coli K-12; K12, nutrient agar, 37° C., 18 hours, E. coli K-12, read-out: Minimum Inhibitory Concentration): 0.39 µg/mL (≈ 0.834 µM); MIC ([11]; ATCC607, nutrient agar, 37° C., 18 hours, M. smegmatis ATCC 607): 0.39 µg/mL (≈ 0.834 µM); MIC ([13]; PCI602, nutrient agar, 37° C., 18 hours, K. pneumoniae PCI 602, read-out: Minimum Inhibitory Concentration): 0.39 µg/mL (≈ 0.834 µM); MIC (Escherichia coli W 677; W677, nutrient agar, 37° C., 18 hours, E. coli W 677, read-out: Minimum Inhibitory Concentration): 0.39 µg/mL (≈ 0.834 µM); growth inhibition of resistant bacteria producing 6'-acetyltransferases [19]: not able to inhibit the growth; activity against resistant bacteria producing aminoglycoside 3'-phosphotransferases [21]: active
NCC1OC(OC2C(N)CC(N)C(OC3OC(CO)C(O)C(N)C3O)C2O)C(O)C(O)C1O (stereo not shown) [kanamycin A] | – | – | – | – | – | – | – | – | – | – | – | – | – | acetylate the 6'-amino group | –
NC[C@H]1O[C@H](O[C@H]2[C@H](O)[C@@H](O[C@H]3O[C@H](CO)[C@@H](O)[C@H](N)[C@H]3O)[C@H](N)C[C@@H]2N)[C@H](N)[C@@H](O)[C@@H]1O [kanamycin B] | – | – | – | – | – | – | – | – | – | – | – | – | – | acetylate the 6'-amino group | –
